Laboratory results as given in patent publication US11739098B2 (BRISTOL-MYERS SQUIBB COMPANY, priority 2017, dated 2023).
pIC50: −log10 of the molar value.

What was measured:
Assay type in all cases: cell-based
[1] = target: T1, human TLR7 (Homo sapiens, UniProt Q9NYK1); assay: TLR7 inhibition reporter assay (HEK-Blue cells, SEAP reporter, gardiquimod stimulation); conditions: HEK-Blue cells overexpressing human TLR7, SEAP reporter, gardiquimod 7.5 μM
T1 construct: host or cells: HEK-Blue cells (HEK293-derived reporter line)
T1 sequence (Q9NYK1 27-1049): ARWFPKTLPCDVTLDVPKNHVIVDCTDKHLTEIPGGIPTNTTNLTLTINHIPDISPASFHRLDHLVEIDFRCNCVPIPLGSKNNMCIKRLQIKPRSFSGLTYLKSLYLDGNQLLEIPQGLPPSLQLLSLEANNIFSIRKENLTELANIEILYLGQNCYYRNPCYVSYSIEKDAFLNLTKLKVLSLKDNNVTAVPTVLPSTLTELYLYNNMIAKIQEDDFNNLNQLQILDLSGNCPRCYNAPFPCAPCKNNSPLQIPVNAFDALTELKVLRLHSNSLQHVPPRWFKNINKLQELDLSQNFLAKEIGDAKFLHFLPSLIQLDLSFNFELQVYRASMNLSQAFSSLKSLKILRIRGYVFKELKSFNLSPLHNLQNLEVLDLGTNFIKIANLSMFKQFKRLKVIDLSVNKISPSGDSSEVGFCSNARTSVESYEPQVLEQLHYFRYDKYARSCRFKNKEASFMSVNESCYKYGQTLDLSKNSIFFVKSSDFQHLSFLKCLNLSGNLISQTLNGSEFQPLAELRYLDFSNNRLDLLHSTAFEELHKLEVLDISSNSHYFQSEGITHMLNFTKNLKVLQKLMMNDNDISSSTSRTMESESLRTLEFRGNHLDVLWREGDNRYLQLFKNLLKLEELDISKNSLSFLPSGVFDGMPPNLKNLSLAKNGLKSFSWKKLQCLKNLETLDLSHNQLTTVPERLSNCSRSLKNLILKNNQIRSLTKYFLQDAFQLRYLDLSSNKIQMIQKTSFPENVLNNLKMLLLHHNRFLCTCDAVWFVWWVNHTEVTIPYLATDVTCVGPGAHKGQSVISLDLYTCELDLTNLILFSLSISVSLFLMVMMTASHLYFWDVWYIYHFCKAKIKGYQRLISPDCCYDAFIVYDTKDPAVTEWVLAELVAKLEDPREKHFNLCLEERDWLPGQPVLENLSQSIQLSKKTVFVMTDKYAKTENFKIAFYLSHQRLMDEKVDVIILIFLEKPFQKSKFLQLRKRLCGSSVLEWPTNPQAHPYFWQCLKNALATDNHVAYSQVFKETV
In short: (§1)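 After 22 h at 37 °C, SEAP secretion was measured from human TLR7-, TLR8- or TLR9-expressing HEK-Blue reporter cells given compound (0.05 nM–50 μM) 30 min before agonist: 7.5 μM gardiquimod, 15.9 μM R848 or 5 nM ODN2006 respectively. Percent inhibition referenced to agonist-plus-DMSO and known-inhibitor wells.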

[2] = target: T2, human TLR8 (Homo sapiens, UniProt Q9NR97); assay: TLR8 inhibition reporter assay (HEK-Blue cells, SEAP reporter, R848 stimulation); conditions: HEK-Blue cells overexpressing human TLR8, SEAP reporter, R848 15.9 μM
T2 construct: host or cells: HEK-Blue cells (HEK293-derived reporter line)
T2 sequence (Q9NR97 27-1041): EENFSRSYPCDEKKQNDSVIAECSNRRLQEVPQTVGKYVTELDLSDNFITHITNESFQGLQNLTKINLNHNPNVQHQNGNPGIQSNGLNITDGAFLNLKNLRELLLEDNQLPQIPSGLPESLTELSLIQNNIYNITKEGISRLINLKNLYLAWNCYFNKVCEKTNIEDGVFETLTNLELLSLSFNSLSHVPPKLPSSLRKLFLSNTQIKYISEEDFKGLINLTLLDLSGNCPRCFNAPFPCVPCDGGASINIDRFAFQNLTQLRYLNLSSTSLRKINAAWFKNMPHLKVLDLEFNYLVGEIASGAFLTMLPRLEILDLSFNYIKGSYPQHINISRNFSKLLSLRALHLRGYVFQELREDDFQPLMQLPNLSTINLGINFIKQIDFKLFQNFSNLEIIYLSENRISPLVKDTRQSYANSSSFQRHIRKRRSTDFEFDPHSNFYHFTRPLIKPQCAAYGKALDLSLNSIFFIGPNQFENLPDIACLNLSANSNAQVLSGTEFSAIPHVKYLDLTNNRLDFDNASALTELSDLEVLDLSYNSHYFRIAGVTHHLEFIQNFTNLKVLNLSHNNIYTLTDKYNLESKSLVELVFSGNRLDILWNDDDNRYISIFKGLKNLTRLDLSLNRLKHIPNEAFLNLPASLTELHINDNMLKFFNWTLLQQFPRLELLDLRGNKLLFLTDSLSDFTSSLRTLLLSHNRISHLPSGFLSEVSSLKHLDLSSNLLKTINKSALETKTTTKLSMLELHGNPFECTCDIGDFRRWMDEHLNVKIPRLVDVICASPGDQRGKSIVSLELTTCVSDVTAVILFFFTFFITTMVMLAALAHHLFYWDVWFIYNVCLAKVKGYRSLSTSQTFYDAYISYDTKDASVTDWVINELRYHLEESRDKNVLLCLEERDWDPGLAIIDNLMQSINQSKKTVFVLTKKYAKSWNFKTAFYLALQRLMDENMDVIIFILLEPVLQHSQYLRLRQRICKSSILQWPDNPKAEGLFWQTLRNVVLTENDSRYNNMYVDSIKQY
In short: as §1

[3] = target: T3, human TLR9 (Homo sapiens, UniProt Q9NR96); assay: TLR9 inhibition reporter assay (HEK-Blue cells, SEAP reporter, ODN2006 stimulation); conditions: HEK-Blue cells overexpressing human TLR9, SEAP reporter, ODN2006 5 nM
T3 construct: host or cells: HEK-Blue cells (HEK293-derived reporter line)
T3 sequence (Q9NR96 26-1032): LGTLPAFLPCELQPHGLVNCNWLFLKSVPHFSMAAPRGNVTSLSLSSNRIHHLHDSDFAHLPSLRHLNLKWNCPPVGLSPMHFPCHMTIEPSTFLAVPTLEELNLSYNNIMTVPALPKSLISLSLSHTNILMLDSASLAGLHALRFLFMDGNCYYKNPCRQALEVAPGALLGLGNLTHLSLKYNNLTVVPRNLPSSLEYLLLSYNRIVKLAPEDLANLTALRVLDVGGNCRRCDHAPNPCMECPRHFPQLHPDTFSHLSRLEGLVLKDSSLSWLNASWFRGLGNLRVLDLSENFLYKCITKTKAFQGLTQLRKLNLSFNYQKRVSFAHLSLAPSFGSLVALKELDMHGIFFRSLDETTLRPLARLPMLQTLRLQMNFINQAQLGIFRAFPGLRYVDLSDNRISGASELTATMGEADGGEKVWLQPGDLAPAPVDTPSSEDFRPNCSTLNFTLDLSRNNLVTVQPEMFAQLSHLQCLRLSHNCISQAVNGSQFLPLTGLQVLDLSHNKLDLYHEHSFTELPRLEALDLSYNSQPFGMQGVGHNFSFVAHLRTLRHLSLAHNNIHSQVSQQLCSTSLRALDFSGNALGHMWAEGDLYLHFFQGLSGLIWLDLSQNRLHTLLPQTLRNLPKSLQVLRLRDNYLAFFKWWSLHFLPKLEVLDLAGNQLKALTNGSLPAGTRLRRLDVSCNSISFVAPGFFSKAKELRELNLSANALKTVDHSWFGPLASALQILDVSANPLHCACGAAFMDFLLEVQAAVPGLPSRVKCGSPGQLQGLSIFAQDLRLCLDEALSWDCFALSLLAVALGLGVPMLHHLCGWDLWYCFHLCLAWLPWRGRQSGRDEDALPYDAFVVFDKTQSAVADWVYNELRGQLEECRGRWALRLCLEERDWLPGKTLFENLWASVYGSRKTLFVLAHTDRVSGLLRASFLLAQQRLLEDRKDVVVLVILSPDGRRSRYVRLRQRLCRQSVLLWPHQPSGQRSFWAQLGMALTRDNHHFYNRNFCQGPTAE
In short: as §1

Row | pIC50 [1] | pIC50 [2] | pIC50 [3] | SMILES
1 | > 7.00 | > 7.00 | 4.30 to 6.00 | Cc1cc(-c2[nH]c3ccc(C4CCNCC4)cc3c2C(C)C)c2ccccc2n1 [Example 104, 4-(3-isopropyl-5-(piperidin-4-yl)-1H-indol-2-yl)-2-methylquinoline]
2 | 6.00 to 7.00 | 4.30 to 6.00 | 4.30 to 6.00 | CC(C)c1c(-c2ccc3c(O)noc3c2)[nH]c2ccc(C3CCNCC3)cc12 [Example 5, 6-(3-isopropyl-5-(piperidin-4-yl)-1H-indol-2-yl)benzo[d]isoxazol-3-ol]
3 | > 7.00 | > 7.00 | 4.30 to 6.00 | CNC(=O)CN1CCC(c2ccc3[nH]c(-c4cc(C)c5ncsc5n4)c(C(C)C)c3c2)CC1 [Example 406, 2-(4-(3-isopropyl-2-(7-methylthiazolo[5,4-b]pyridin-5-yl)-1H-indol-5-yl)piperidin-1-yl)-N-methylacetamide]
4 | 6.00 to 7.00 | > 7.00 | 6.00 to 7.00 | Cc1cc(-c2[nH]c3ccc(C4CCNCC4)cc3c2C(C)C)cc2nccn12 [Example 161, 7-(3-isopropyl-5-(piperidin-4-yl)-1H-indol-2-yl)-5-methylimidazo[1,2-a]pyridine]
5 | > 7.00 | 6.00 to 7.00 | 4.30 to 6.00 | Cc1nc2cc(-c3[nH]c4ccc(C5CCN(C(=O)CN(C)C)CC5)cc4c3C(C)C)ccn2n1 [Example 538, 2-(dimethylamino)-1-(4-(3-isopropyl-2-(2-methyl-[1,2,4]triazolo[1,5-a]pyridin-7-yl)-1H-indol-5-yl)piperidin-1-yl)ethan-1-one]
6 | 4.30 to 6.00 | < 5.51 | 4.30 to 6.00 | CNCCN1CCC(c2ccc3[nH]c(-c4cccc5cccnc45)c(C)c3c2)CC1 [Example 662, N-methyl-2-(4-(3-methyl-2-(quinolin-8-yl)-1H-indol-5-yl)piperidin-1-yl)ethan-1-amine]
7 | > 7.00 | > 7.00 | 6.00 to 7.00 | CCc1c(-c2ccnc3[nH]ccc23)[nH]c2ccc(C3CCN(C4CC(C)(C)NC(C)(C)C4)CC3)cc12 [Example 838, 4-(3-ethyl-5-(2′,2′,6′,6′-tetramethyl-[1,4′-bipiperidin]-4-yl)-1H-indol-2-yl)-1H-pyrrolo[2,3-b]pyridine]
8 | 6.00 to 7.00 | 6.00 to 7.00 | 4.30 to 6.00 | CC(C)c1c(-c2ccn3cnnc3c2)[nH]c2ccc(C3CCN(Cc4ncn(C)n4)CC3)cc12 [Example 880, 7-(3-isopropyl-5-(1-((1-methyl-1H-1,2,4-triazol-3-yl)methyl)piperidin-4-yl)-1H-indol-2-yl)-[1,2,4]triazolo[4,3-a]pyridine]
9 | > 7.00 | > 7.00 | 4.30 to 6.00 | CC(C)c1c(-c2ccnc3[nH]ncc23)[nH]c2ccc(C3CCN(C(=O)CNCC(C)(C)N4CCOCC4)CC3)cc12 [Example 580, 1-(4-(3-isopropyl-2-(1H-pyrazolo[3,4-b]pyridin-4-yl)-1H-indol-5-yl)piperidin-1-yl)-2-((2-methyl-2-morpholinopropyl)amino)ethan-1-one]
10 | 4.30 to 6.00 | 6.00 to 7.00 | 4.30 to 6.00 | CC(C)c1c(-c2ccnc3cnn(C)c23)[nH]c2ccc(C3CCNCC3)cc12 [Example 42, 7-(3-isopropyl-5-(piperidin-4-yl)-1H-indol-2-yl)-1-methyl-1H-pyrazolo[4,3-b]pyridine]
11 | > 7.00 | > 7.00 | 4.30 to 6.00 | Cc1c(-c2[nH]c3ccc(C4CCN(C(=O)CN(C)C)CC4)cc3c2C(C)C)c2cccnc2n1C [Example 459, 1-(4-(2-(1,2-dimethyl-1H-pyrrolo[2,3-b]pyridin-3-yl)-3-isopropyl-1H-indol-5-yl)piperidin-1-yl)-2-(dimethylamino)ethan-1-one]
12 | > 7.00 | > 7.00 | 4.30 to 6.00 | Cc1c(-c2[nH]c3ccc(C4CCNCC4)cc3c2C(C)C)nn2ncnc2c1C [Example 32, 6-(3-isopropyl-5-(piperidin-4-yl)-1H-indol-2-yl)-7,8-dimethyl-[1,2,4]triazolo[1,5-b]pyridazine]
13 | > 7.00 | < 5.51 | < 4.30 | Cc1nc2cc(-c3[nH]c4ccc(C5CCN(C(=O)C[C@H](C)O)CC5)cc4c3C(C)C)ccn2n1 [Example 602, (S)-3-hydroxy-1-(4-(3-isopropyl-2-(2-methyl-[1,2,4]triazolo[1,5-a]pyridin-7-yl)-1H-indol-5-yl)piperidin-1-yl)butan-1-one]
14 | > 7.00 | > 7.00 | 6.00 to 7.00 | CNC(=O)c1cn2cc(-c3[nH]c4ccc(C5CCN(C(=O)CN(C)C)CC5)cc4c3C(C)C)cc(C)c2n1 [Example 495, 6-(5-(1-(dimethylglycyl)piperidin-4-yl)-3-isopropyl-1H-indol-2-yl)-N,8-dimethylimidazo[1,2-a] pyridine-2-carboxamide]
